Measurements: patent publication US10988459B2 (priority 2015, dated 2021)

biological target: human RIP1 kinase domain (2-375) (Homo sapiens (Human), UniProt Q13546); assay: biochemical; format: biochemical; details: Table 5; apparent Ki (Morrison tight-binding fit); 50 nM RIP1 kinase domain, 50 uM ATP, 2 hours incubation; read-out: Ki
Method: Example 794: RIP1 Kinase Inhibition Assays (Biochemical Assay)
The compounds of the present invention were tested for their capacity to inhibit RIP1K activity as described below.
The ability of the receptor interacting protein kinase (RIPK1) to catalyze the hydrolysis of adenosine-5′-triphosphate (ATP) is monitored using the Transcreener ADP (adenosine-5′-diphosphate) assay (BellBrook Labs). Purified human RIP1 kinase domain (2-375) (50 nM) derived from a baculovirus-infected insect cell expression system is incubated with test compounds for 2 hours in 50 mM Hepes buffer (pH 7.5) containing 30 mM MgCl2, 1 mM dithiothreitol, 50 uM ATP, 0.002% Brij-35, and 0.5% dimethyl sulfoxide (DMSO). […] The tracer bound to the antibody is displaced by the ADP generated during the RIP1K reaction, which causes a decrease in fluorescence polarization that is measured by laser excitation at 633 nm with a FP microplate reader M1000. Fractional activity was plotted against test article concentration. Using Genedata Screener software (Genedata; Basel, Switzerland), the data were fit to the tight-binding apparent inhibition constant (Ki^app) Morrison equation [Williams, J. W. and Morrison, J. F. (1979) The kinetics of reversible tight-binding inhibition. Methods Enzymol 63: 437-67]. The following equation was used to calculate fractional activity and Ki^app:
[formula] where [E]T and [I]T are the total concentrations of active enzyme and test article, respectively.
“Method” in the first column of each table refers to the synthetic method(s) used to prepare each compound as shown in the Examples above. In certain examples, chiral column retention times (min) are provided for certain stereoisomers.

human RIP1 kinase domain (2-375), sequence (Q13546 2-375): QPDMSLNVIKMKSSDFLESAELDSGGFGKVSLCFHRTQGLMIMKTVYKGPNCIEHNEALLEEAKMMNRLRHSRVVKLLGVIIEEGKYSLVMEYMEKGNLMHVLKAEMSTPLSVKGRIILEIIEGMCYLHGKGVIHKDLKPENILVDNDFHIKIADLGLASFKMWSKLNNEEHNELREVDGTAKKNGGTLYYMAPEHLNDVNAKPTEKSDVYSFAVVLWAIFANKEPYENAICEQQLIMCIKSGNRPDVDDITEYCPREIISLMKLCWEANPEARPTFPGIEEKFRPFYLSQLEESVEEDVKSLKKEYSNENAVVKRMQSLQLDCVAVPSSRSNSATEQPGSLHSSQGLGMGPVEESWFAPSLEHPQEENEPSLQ

Ki | Compound
114 nM | CN1C(=O)C(NC(=O)c2ncn(Cc3ccccc3)n2)CCn2nc(Cn3cccn3)cc21 (racemic) [Example 705, 1-benzyl-N-[4-methyl-5-oxo-2-(pyrazol-1-ylmethyl)-7,8-dihydro-6H-pyrazolo[1,5-a][1,3]diazepin-6-yl]-1,2,4-triazole-3-carboxamide]
413 nM | Cc1nccn1Cc1cc2n(n1)CCC(NC(=O)c1ncn(Cc3ccccc3)n1)C(=O)N2C (racemic) [Example 706, 1-benzyl-N-[4-methyl-2-[(2-methylimidazol-1-yl)methyl]-5-oxo-7,8-dihydro-6H-pyrazolo[1,5-a][1,3]diazepin-6-yl]-1,2,4-triazole-3-carboxamide]
182 nM | Cc1ncc(-c2cc3n(n2)CCC(NC(=O)c2ncn(Cc4ccccc4)n2)C(=O)N3C)n1C (racemic) [Example 775, 1-benzyl-N-(2-(1,2-dimethyl-1H-imidazol-5-yl)-4-methyl-5-oxo-5,6,7,8-tetrahydro-4H-pyrazolo[1,5-a][1,3]diazepin-6-yl)-1H-1,2,4-triazole-3-carboxamide]
212 nM | Cc1nc(-c2cc3n(n2)CCC(NC(=O)c2ncn(Cc4ccccc4)n2)C(=O)N3C)cn1C (racemic) [Example 776, 1-benzyl-N-(2-(1,2-dimethyl-1H-imidazol-4-yl)-4-methyl-5-oxo-5,6,7,8-tetrahydro-4H-pyrazolo[1,5-a][1,3]diazepin-6-yl)-1H-1,2,4-triazole-3-carboxamide]
70 nM | CN1C(=O)C(NC(=O)c2ncn(Cc3ccccc3)n2)CCn2nc(-c3ccn(C)n3)cc21 (racemic) [Example 777, 1-benzyl-N-(4-methyl-2-(1-methyl-1H-pyrazol-3-yl)-5-oxo-5,6,7,8-tetrahydro-4H-pyrazolo[1,5-a][1,3]diazepin-6-yl)-1H-1,2,4-triazole-3-carboxamide]
171 nM | CN1C(=O)C(NC(=O)c2ncn(Cc3ccccc3)n2)CCn2nc(-c3cnn(C)c3)cc21 (racemic) [Example 778, 1-benzyl-N-(4-methyl-2-(1-methyl-1H-pyrazol-4-yl)-5-oxo-5,6,7,8-tetrahydro-4H-pyrazolo[1,5-a][1,3]diazepin-6-yl)-1H-1,2,4-triazole-3-carboxamide]

same assay, conditions: human RIP1 kinase domain (2-375), 50 uM ATP, 2 hours incubation, Transcreener ADP assay; read-out: RIP1 Ki

Compound | Ki
O=C(N[C@H]1COc2cc(F)cc(F)c2NC1=O)c1n[nH]c2c1C[C@@H](C(F)(F)F)CC2 (single isomer, unassigned) [Example 86] | 20.8 nM
O=C(N[C@H]1COc2cc(F)cc(F)c2NC1=O)c1n[nH]c2c1C[C@H](C(F)(F)F)CC2 (single isomer, unassigned) [Example 87] | 104 nM
CN1C(=O)[C@@H](NC(=O)c2cc3c(cn2)CO[C@@]32CCOC2)COc2ccccc21 (single isomer, unassigned) [Example 159] | 327 nM
CCn1nc(C(=O)N[C@H]2COc3ccccc3N(C)C2=O)c2c1CC[C@@H](C(F)(F)F)C2 (single isomer, unassigned) [Example 184] | 407 nM
CCn1nc(C(=O)N[C@H]2COc3ccccc3N(C)C2=O)c2c1CC[C@H](C(F)(F)F)C2 (single isomer, unassigned) [Example 185] | 825 nM

Second part, the molecule after the results:

Ki | Compound
139 nM | CN1C(=O)[C@@H](NC(=O)c2cn(Cc3ccccc3)nn2)CCn2nc(C3CC3)cc21 (single isomer, unassigned) [Example 112]
891 nM | CN1C(=O)[C@@H](NC(=O)c2nc3n(n2)[C@@H](c2ccccc2)CC3)CCn2nccc21 (single isomer, unassigned) [Example 125]
24.1 nM | CN1C(=O)[C@@H](NC(=O)c2nc3n(n2)[C@H](c2ccccc2)CC3)CCn2nccc21 (single isomer, unassigned) [Example 126]
388 nM | CN1C(=O)[C@@H](NC(=O)c2ncn(Cc3ccccc3)n2)CC[C@@H]2[C@H]1C2(F)F (single isomer, unassigned) [Example 129]
> 10000 nM | CN1C(=O)[C@@H](NC(=O)c2ncn(Cc3ccccc3)n2)CC[C@H]2[C@@H]1C2(F)F (single isomer, unassigned) [Example 130]
1300 nM | CCOC(=O)[C@@H]1[C@@H]2CC[C@H](NC(=O)c3ncn(Cc4ccccc4)n3)C(=O)N(C)[C@@H]21 (single isomer, unassigned) [Example 131]
5000 nM | CCOC(=O)[C@H]1[C@H]2CC[C@H](NC(=O)c3ncn(Cc4ccccc4)n3)C(=O)N(C)[C@H]21 (single isomer, unassigned) [Example 132]

same assay, conditions: tight-binding apparent inhibition constant; human RIP1 kinase domain (2-375) 50 nM, 50 uM ATP, 2 hours; read-out: Ki

Compound | Ki
Cc1cc(F)c2c(c1)OC[C@H](NC(=O)c1nc3n(n1)[C@H](C(C)C)CC3)C(=O)N2 (single isomer, unassigned) [Example 352] | 96.9 nM
CC(C)[C@@H]1CCc2nc(C(=O)N[C@H]3CCn4nccc4N(C)C3=O)nn21 (single isomer, unassigned) [Example 353] | 49.8 nM
Cc1cc(F)c2c(c1)OC[C@H](NC(=O)c1nc3n(n1)[C@@H](C(C)C)CC3)C(=O)N2 (single isomer, unassigned) [Example 354] | 4.5 nM
CC[C@H]1CCc2nc(C(=O)N[C@H]3COc4ccccc4N(C)C3=O)nn21 (single isomer, unassigned) [Example 358] | 9 nM
CC[C@@H]1CCc2nc(C(=O)N[C@H]3COc4ccccc4N(C)C3=O)nn21 (single isomer, unassigned) [Example 359] | 303 nM
CN1C(=O)[C@@H](NC(=O)c2nc3n(n2)[C@@H](c2cnn(C)c2)CCC3)CCn2nccc21 (single isomer, unassigned) [Example 404] | 318 nM
CC(C)[C@H]1CCCc2nc(C(=O)N[C@H]3COc4ccccc4N(C)C3=O)nn21 (single isomer, unassigned) [Example 413] | 227 nM
CN1C(=O)[C@@H](NC(=O)c2nc3n(n2)[C@@H](C(F)(F)F)CCC3)COc2ccccc21 (single isomer, unassigned) [Example 425] | 471 nM
Cc1cc(F)c2c(c1)OC[C@H](NC(=O)c1nc3n(n1)[C@@H](C(F)(F)F)CCC3)C(=O)N2 (single isomer, unassigned) [Example 427] | 210 nM
Cc1cc(F)c2c(c1)OC[C@H](NC(=O)c1nc3n(n1)[C@H](C(F)(F)F)CCC3)C(=O)N2 (single isomer, unassigned) [Example 428] | 8.14 nM
O=C(N[C@H]1CCc2cc(F)cc(F)c2NC1=O)c1nc2n(n1)[C@@H](C(F)(F)F)CCC2 (single isomer, unassigned) [Example 429] | 213 nM
O=C(N[C@H]1CCc2cc(F)cc(F)c2NC1=O)c1nc2n(n1)[C@H](C(F)(F)F)CCC2 (single isomer, unassigned) [Example 430] | 21 nM
O=C(N[C@H]1COc2cc(F)cc(F)c2NC1=O)c1nc2n(n1)[C@@H](C(F)(F)F)CCC2 (single isomer, unassigned) [Example 431] | 434 nM
O=C(N[C@H]1COc2cc(F)cc(F)c2NC1=O)c1nc2n(n1)[C@H](C(F)(F)F)CCC2 (single isomer, unassigned) [Example 432] | 12.7 nM
CC(C)[C@H]1CCCc2nc(C(=O)N[C@H]3CCc4cc(F)cc(F)c4NC3=O)nn21 (single isomer, unassigned) [Example 434] | 174 nM

The next lines start with the values.

Ki | Compound
896 nM | CN1C(=O)[C@@H](NC(=O)c2nc3n(n2)[C@@H](c2ccccc2)CC3)CCn2nccc21 (single isomer, unassigned) [Example 362]
21.2 nM | CN1C(=O)[C@@H](NC(=O)c2nc3n(n2)[C@H](c2ccccc2)CC3)CCn2nccc21 (single isomer, unassigned) [Example 363]
450 nM | CN1C(=O)[C@@H](NC(=O)c2ncn(Cc3ccccc3)n2)CC[C@@H]2[C@H]1C2(F)F (single isomer, unassigned) [Example 364]
161 nM | CC(O)c1cc2n(n1)CC[C@H](NC(=O)c1ncn(Cc3ccccc3)n1)C(=O)N2C (single isomer, unassigned) [Example 367]
154 nM | CC(O)c1cc2n(n1)CC[C@H](NC(=O)c1ncn(Cc3ccccc3)n1)C(=O)N2C (single isomer, unassigned) [Example 368]
345 nM | CN1C(=O)C(NC(=O)c2ncn(Cc3ccccc3)n2)CCn2nc(C(C)(C)F)cc21 (single isomer, unassigned) [Example 369, 1-benzyl-N-[2-(1-fluoro-1-methyl-ethyl)-4-methyl-5-oxo-7,8-dihydro-6H-pyrazolo[1,5-a][1,3]diazepin-6-yl]-1,2,4-triazole-3-carboxamide]
555 nM | CN1C(=O)C(NC(=O)c2ncn(Cc3ccccc3)n2)CCn2nc(C(C)(C)F)cc21 (single isomer, unassigned) [Example 370, 1-benzyl-N-[2-(1-fluoro-1-methyl-ethyl)-4-methyl-5-oxo-7,8-dihydro-6H-pyrazolo[1,5-a][1,3]diazepin-6-yl]-1,2,4-triazole-3-carboxamide]
2100 nM | CN1C(=O)[C@@H](NC(=O)c2nc3n(n2)[C@H](c2ccccc2)CCC3)CCn2nccc21 (single isomer, unassigned) [Example 384]
